# Data as given in patent US20050148763A1, “Peg-binding pth or peg-binding pth derivative” (Chugai Seiyaku Kabushiki Kaisha, priority 2002, published 2005).
# Experiment: Hypotensive effect in anesthetized rats
# Format: in vivo
# Conditions: sc
# Method: The mono-methoxy 5 k PEG-PTH(1-34) prepared in Example 1(2) was also adjusted similarly to 36.5, 18.3 and 9.1 μg/mL (calculated as PTH(1-34)). The samples thus prepared were then stored on ice and restored to room temperature about 30 minutes before administration.
# Female SD rats at 10 weeks of age (Charles River Japan, Inc.) were anesthetized by intraperitoneal administration of 50 mg/kg pentobarbital sodium (Abbott Laboratories). A catheter for blood pressure measurement and a catheter for anesthesia maintenance were inserted into the femoral artery and vein, respectively, of each rat. Anesthesia was maintained using a syringe pump (Terumo Corporation) to ensure continuous injection (at 22.5 mg/kg/hour) of pentobarbital sodium (powder form, Tokyo Kasei Kogyo Co., Ltd.) dissolved in physiological saline (Otsuka Pharmaceutical Co., Ltd.). On the other hand, each catheter for blood pressure measurement was filled with 100 U/mL heparin sodium (Novo Nordisk A/S) in physiological saline. To measure systemic blood pressure, a pressure transducer (Nihon Kohden Corporation) was connected to the catheter for blood pressure measurement and signals from the transducer were input to a blood pressure amplifier (Nihon Kohden Corporation). The resulting data were averaged for use as an indicator of systemic blood pressure. The output of systemic blood pressure was, in turn, input to a measuring unit for instantaneous heart rate (Nihon Kohden Corporation) to determine heart rate. These parameters were continuously recorded on a thermal pen recorder (Graphtec Corporation) at a speed of 5 mm/min. After surgery, an injection needle for administration of a test substance was inserted into the dorsal subcutaneous region of each rat. After each parameter had stabilized, test drugs were administered. […] This figure illustrates changes in blood pressure induced by administration of a negative control (buffer), 50 μg/kg hPTH (1-34) and 36.5 μg/kg 5 k PEG-PTH(1-34) in this order from the upper panel. In addition, the average value of blood pressure before PTH administration and the value at the maximum blood pressure drop after administration were measured for each case to determine the difference between these two values. […] The vertical axis represents the maximum blood pressure drop (mmHg) and the horizontal axis represents the amount of PTH administered.
structure (smiles),measurement,setting,value
"CC[C@H](C)[C@H](NC(=O)[C@H](CCC(=O)O)NC(=O)[C@H](CO)NC(=O)[C@@H](NC(=O)[C@@H](N)CO)C(C)C)C(=O)N[C@@H](CCC(N)=O)C(=O)N[C@@H](CC(C)C)C(=O)N[C@@H](CCSC)C(=O)N[C@@H](Cc1cnc[nH]1)C(=O)N[C@@H](CC(N)=O)C(=O)N[C@@H](CC(C)C)C(=O)NCC(=O)N[C@@H](CCCCN)C(=O)N[C@@H](Cc1cnc[nH]1)C(=O)N[C@@H](CC(C)C)C(=O)N[C@@H](CC(N)=O)C(=O)N[C@@H](CO)C(=O)N[C@@H](CCSC)C(=O)N[C@@H](CCC(=O)O)C(=O)N[C@@H](CCCN=C(N)N)C(=O)N[C@H](C(=O)N[C@@H](CCC(=O)O)C(=O)N[C@@H](Cc1c[nH]c2ccccc12)C(=O)N[C@@H](CC(C)C)C(=O)N[C@@H](CCCN=C(N)N)C(=O)N[C@@H](CCCCN)C(=O)N[C@@H](CCCCN)C(=O)N[C@@H](CC(C)C)C(=O)N[C@@H](CCC(N)=O)C(=O)N[C@@H](CC(=O)O)C(=O)N[C@H](C(=O)N[C@@H](Cc1cnc[nH]1)C(=O)N[C@@H](CC(N)=O)C(=O)N[C@@H](Cc1ccccc1)C(=O)O)C(C)C)C(C)C [hPTH(1-34), reference compound]",hypotensive effect after administration (in words),anesthetized female SD rats,strong hypotensive effect immediately after administration
same,"hypotensive effect over doses, maximum blood pressure drop (in words)","anesthetized rats, hPTH(1-34) 12.5-50 μg/kg, 5 k PEG-PTH(1-34) 9.1-36.5 μg/kg",dose-dependent hypotensive effect in the range of 12.5 μg/kg to 50 μg/kg
